Literature values as cited in publication PMC12006171, “Marsupial cathelicidins: characterization, antimicrobial activity and evolution in this unique mammalian lineage” (Frontiers in Immunology, 2025).
Where two headings read alike, the source gives them in different places.

What was measured:
[1] = test system: three fungi (Candida krusei, Candida parapsilosis, Candida albicans); design: method as in 4 sources, ref Peel et al 2016 ||| ref Peel et al 2021 ||| ref Wang et al 2011 ||| ref Peel et al 2017; settings: cited from earlier work
[2] = test system: six bacteria (S. aureus, E. coli, P. aeruginosa; ATCC and clinical isolate); design: method as in 4 sources, ref Peel et al 2016 ||| ref Peel et al 2021 ||| ref Wang et al 2011 ||| ref Peel et al 2017; settings: cited from earlier work
[3] = mature peptide, Y/N summary from earlier study, ref Peel et al 2021
[4] = mature peptide, Y/N summary from earlier study, ref Peel et al 2016
[5] = mature peptide (MP), Y/N summary, ref Peel et al 2017

Sequence | Antifungal (MIC <64ug/mL) [1, 3] | Antibacterial (MIC <64ug/mL) [2, 3] | Antifungal (MIC <64ug/mL) [1, 5] | Antibacterial (MIC <64ug/mL) [2, 5] | also measured
NFIHQKYRILLDKYRKLQDIFSGSGDKV [PhciCath2] | N (Peel et al 2021) (Antifungal (MIC <64ug/mL)) | N (Peel et al 2021) (Antibacterial (MIC <64ug/mL)) | – | – | –
GIKHILFMAKTKLPRATCTAEIKENCDRKK [SahaCath1] | – | – | – | – | Antifungal (MIC <64ug/mL) [1, 4]: N (Peel et al 2016) (Antifungal (MIC <64ug/mL)); Antibacterial (MIC <64ug/mL) [2, 4]: N (Peel et al 2016) (Antibacterial (MIC <64ug/mL))
ASSGIIDTSSLPPKIRQIYNQAVYDTLVGILRNF [PhciCath6] | N (Peel et al 2021) (Antifungal (MIC <64ug/mL)) | N (Peel et al 2021) (Antibacterial (MIC <64ug/mL)) | – | – | –
KDILKNNNIIILPGSNEK [OranCath1] | – | – | – | – | Antibacterial (MIC <64ug/mL) ([2]; mature peptide (MP), Y/N summary, ref Wang et al 2011): Y (Wang et al 2011) (Antibacterial (MIC <64ug/mL))
TLTQAHCPYFLRKKPEGEMATGGRPQETPKLLGAL [ModoCath10] | – | – | N (Peel et al 2017) (Antifungal (MIC <64ug/mL)) | N (Peel et al 2017) (Antibacterial (MIC <64ug/mL)) | –
STILEDPGKIRERRDIGEEPIQKKQKMYRDQMQ [SahaCath7] | N (Peel et al 2021) (Antifungal (MIC <64ug/mL)) | N (Peel et al 2021) (Antibacterial (MIC <64ug/mL)) | – | – | –
RTFGNLIHQKYRKLLEAYRKLRDIFSG [ModoCath5] | – | – | N (Peel et al 2017) (Antifungal (MIC <64ug/mL)) | N (Peel et al 2017) (Antibacterial (MIC <64ug/mL)) | –
SVPGTRAQSGTTSPGSGSRRVARSRG [OranCath6] | – | – | N (Peel et al 2017) (Antifungal (MIC <64ug/mL)) | N (Peel et al 2017) (Antibacterial (MIC <64ug/mL)) | –
